These results are taken from ChEMBL document CHEMBL1201862, “PubChem BioAssay data set” (2004).

Among the test systems are BT-549; HOP-92; K562; KM12; LOX IMVI; MDA-MB-231; MDA-MB-435; MDA-N; NCI-H226; OVCAR-5; SF-268; SK-MEL-28; SK-MEL-5; SK-OV-3; T47D; U-251; EKVX; MCF7; Malme-3M; SF-539.
Common to all, as to assay: NCI-60 cell line screen, 48 h

SMILES strings stand for the structures.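 Values below derive from 48-hour exposures of cells grown in 96-well plates, with endpoints linearly interpolated between the two concentrations bracketing the appropriate inhibition level. Here, GI50 denotes the concentration required for 50% inhibition of growth.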 Calls of active or inactive are those of the source. Rule as the data show it: active = GI50 up to about 1.1 µM and inactive = higher. Where only a bound is given, the exact number is not on record here.

With `Cc1ccc(/N=N/c2c(O)ccc3ccccc23)c(C)c1`, the GI50 in the experiment with BT-549, with HOP-92, in the experiment with K562, in the experiment with KM12, in the experiment on LOX IMVI and with MDA-MB-231 was > 100 µM (inactive) in each case. The GI50 with MDA-MB-435, in the experiment with MDA-N, with NCI-H226, in the experiment with OVCAR-5, in the experiment with SF-268 and with SK-MEL-28 was > 100 µM (inactive) in each case. Further, the GI50 in the experiment on SK-MEL-5, in the experiment with SK-OV-3, with T47D and in the experiment with U-251 was > 100 µM (inactive) each time.

Turning to `COc1cc2c3c(n(C)c(=O)c2cc1OC)-c1cc2c(cc1/C3=C\CCCCCBr)OCO2`, the GI50 in the experiment with BT-549 is 93.1 µM (inactive); in the experiment on EKVX it was 22.3 µM (inactive); with HOP-92, 4.52 µM (inactive); in the experiment on K562, 6.3 µM (inactive); with KM12 it was 31.9 µM (inactive); in the experiment on LOX IMVI, 3.01 µM (inactive). Also, the GI50 in the experiment with MCF7 is 3.5 µM (inactive); in the experiment on MDA-MB-231 it was 40.3 µM (inactive); in the experiment on MDA-N, 34.8 µM (inactive); in the experiment with OVCAR-5, 67.9 µM (inactive); with SF-268, 4.31 µM (inactive); in the experiment with SK-MEL-28, 0.115 µM (active). The GI50 in the experiment on SK-MEL-5 is 4.07 µM (inactive); in the experiment on SK-OV-3 it was 7.91 µM (inactive); in the experiment on T47D, 2.75 µM (inactive); with U-251, 3.51 µM (inactive).

As for `O=[N+]([O-])C(C(Cl)=C(Cl)Cl)=C(n1cncn1)n1cncn1`, the GI50 with BT-549 is 18.7 µM (inactive); with EKVX it was 24.3 µM (inactive); in the experiment on KM12, 50.4 µM (inactive); with LOX IMVI, 17.7 µM (inactive); with MCF7 it was 25.6 µM (inactive); in the experiment with MDA-MB-231, 19.5 µM (inactive). Moreover, the GI50 is 30.8 µM (inactive) with MDA-MB-435; 16.4 µM (inactive) with Malme-3M; > 100 µM (inactive) in the experiment on NCI-H226; 15.6 µM (inactive) in the experiment on OVCAR-5; 17.1 µM (inactive) in the experiment on SF-268; 19 µM (inactive) with SF-539. For the same compound, the GI50 with SK-MEL-28 is 32.6 µM (inactive); in the experiment with SK-MEL-5, 11.9 µM (inactive); with SK-OV-3, > 100 µM (inactive); in the experiment on T47D, 19 µM (inactive); in the experiment with U-251 it was 34.6 µM (inactive).

On to `O=c1[nH]nc(-c2ccc([N+](=O)[O-])cc2)[nH]1`, for which the GI50 with BT-549 is 19.1 µM (inactive); in the experiment on EKVX it was 45.4 µM (inactive); in the experiment with HOP-92, > 100 µM (inactive); in the experiment on K562 it was > 100 µM (inactive); with KM12, > 100 µM (inactive); with LOX IMVI, > 100 µM (inactive). Besides, the GI50 with MCF7, in the experiment on MDA-MB-435, with MDA-N, with Malme-3M, with NCI-H226 and with OVCAR-5 was > 100 µM (inactive) in each case. Besides, the GI50 with SF-268, in the experiment on SF-539, in the experiment on SK-MEL-28, in the experiment on T47D and in the experiment on U-251 was > 100 µM (inactive) in each case.

As to `c1ccc2nn(C3CCCCO3)nc2c1` (stereo unspecified), the GI50 with BT-549, with EKVX, in the experiment on K562, in the experiment with KM12, in the experiment on MCF7 and in the experiment with MDA-MB-231 was > 100 µM (inactive) each time. Also, the GI50 in the experiment on MDA-MB-435, in the experiment on MDA-N, in the experiment on Malme-3M, in the experiment with NCI-H226, in the experiment on OVCAR-5 and in the experiment on SF-268 was > 100 µM (inactive) in each case. In addition, the GI50 in the experiment with SF-539, in the experiment with SK-MEL-5, in the experiment on SK-OV-3, in the experiment on T47D and with U-251 was > 100 µM (inactive) in each case.

Turning to `CCOC(=O)NNC(=O)C1CSC(c2ccccc2)N1C(C)=O` (stereo unspecified), the GI50 with BT-549 was > 100 µM (inactive); in the experiment with EKVX, > 100 µM (inactive); in the experiment on HOP-92 it was 82.2 µM (inactive); with K562, > 100 µM (inactive); with KM12, > 100 µM (inactive); with LOX IMVI, > 100 µM (inactive). Moreover, the GI50 in the experiment with MCF7, in the experiment with MDA-MB-231, in the experiment with MDA-MB-435, in the experiment on Malme-3M, in the experiment on NCI-H226 and with OVCAR-5 was > 100 µM (inactive) throughout. In addition, the GI50 in the experiment with SF-268, with SF-539, in the experiment with SK-MEL-5, in the experiment on SK-OV-3, with T47D and in the experiment with U-251 was > 100 µM (inactive) in each case.

With `Cc1nc2c(=O)[nH]ncc2[nH]1`, the GI50 in the experiment on BT-549 is > 100 µM (inactive); in the experiment with EKVX, > 100 µM (inactive); in the experiment with K562, > 100 µM (inactive); with KM12, 84.1 µM (inactive); with MCF7 it was > 100 µM (inactive); with MDA-MB-231, > 100 µM (inactive). The GI50 in the experiment with MDA-MB-435, with MDA-N, in the experiment on NCI-H226, in the experiment with OVCAR-5, in the experiment on SF-268 and in the experiment on SF-539 was > 100 µM (inactive) throughout. Further, the GI50 in the experiment on SK-MEL-28, in the experiment with SK-MEL-5, with T47D and in the experiment with U-251 was > 100 µM (inactive) in each case.

Regarding `CC(NS(C)(=O)=O)c1ccccc1` (stereo unspecified), the GI50 in the experiment with BT-549, in the experiment with K562, with KM12, in the experiment on LOX IMVI, in the experiment on MCF7 and in the experiment with MDA-MB-231 was > 100 µM (inactive) each time. In addition, the GI50 in the experiment with MDA-MB-435, with MDA-N, in the experiment with Malme-3M, in the experiment with NCI-H226, in the experiment with OVCAR-5 and in the experiment with SF-539 was > 100 µM (inactive) throughout. Moreover, the GI50 in the experiment with SK-MEL-28 was > 100 µM (inactive); in the experiment on SK-MEL-5, > 100 µM (inactive); with SK-OV-3, > 10 µM (inactive); in the experiment with T47D it was > 100 µM (inactive); in the experiment on U-251 it was > 100 µM (inactive).

Consider `COc1ccc(OC2OC(COC(c3ccccc3)(c3ccc(OC)cc3)c3ccc(OC)cc3)C(O)C(O)C2O)cc1` (stereo unspecified), for which the GI50 in the experiment with BT-549 was 12.5 µM (inactive); in the experiment with EKVX, 4.7 µM (inactive); in the experiment with K562, 2.84 µM (inactive); in the experiment with KM12 it was 3.55 µM (inactive); in the experiment with LOX IMVI, 1.8 µM (inactive); in the experiment with MCF7, 3.75 µM (inactive). Also, the GI50 in the experiment with MDA-MB-231 was 4.6 µM (inactive); with MDA-MB-435, 3.13 µM (inactive); in the experiment with MDA-N, 4.37 µM (inactive); with Malme-3M it was 2.77 µM (inactive); in the experiment with NCI-H226, 12.3 µM (inactive); in the experiment with OVCAR-5, 6.25 µM (inactive). Further, the GI50 was 3.39 µM (inactive) in the experiment on SF-268; 4.42 µM (inactive) in the experiment on SF-539; 2.41 µM (inactive) with SK-MEL-28; 5.06 µM (inactive) in the experiment with SK-MEL-5; 6.43 µM (inactive) in the experiment on SK-OV-3; 6.76 µM (inactive) with T47D. In addition, in the experiment with U-251, the GI50 is 3.6 µM (inactive).

For `CN1CCN(/C(N)=C(\C#N)C(=O)Nc2ccccc2)CC1`, the GI50 in the experiment on BT-549, in the experiment with EKVX, with HOP-92, with K562, in the experiment with KM12 and in the experiment on LOX IMVI was > 100 µM (inactive) throughout. In addition, the GI50 with MCF7, with MDA-MB-435, in the experiment on MDA-N, in the experiment on NCI-H226, with OVCAR-5 and in the experiment with SF-539 was > 100 µM (inactive) throughout. Moreover, the GI50 with SK-MEL-28, in the experiment on SK-MEL-5, in the experiment on SK-OV-3, with T47D and with U-251 was > 100 µM (inactive) throughout.

In the case of `COc1ccc(CCNC(=O)[C@H]2CCCC[C@@H]2CCO)cc1OC`, the GI50 in the experiment on BT-549, with EKVX, in the experiment with HOP-92, in the experiment on K562, in the experiment with KM12 and in the experiment on MCF7 was > 100 µM (inactive) in each case. Besides, the GI50 with MDA-MB-231, in the experiment on MDA-MB-435, in the experiment with NCI-H226, in the experiment with OVCAR-5, in the experiment on SF-268 and with SF-539 was > 100 µM (inactive) in each case. Besides, the GI50 in the experiment with SK-MEL-28, in the experiment with SK-MEL-5, in the experiment with SK-OV-3, in the experiment on T47D and in the experiment with U-251 was > 100 µM (inactive) in each case.

`CCN(CC)CCNC(=O)c1ccc(C)c(OCc2ccccc2)c1[N+](=O)[O-]`: the GI50 is > 35.8 µM (inactive) with BT-549; 68.5 µM (inactive) in the experiment on EKVX; 24.9 µM (inactive) with HOP-92; 19.2 µM (inactive) with K562; 39.9 µM (inactive) in the experiment with KM12; 22.5 µM (inactive) with LOX IMVI. Further, the GI50 was 22.3 µM (inactive) with MCF7; 35.6 µM (inactive) in the experiment on MDA-MB-231; 19.9 µM (inactive) in the experiment on MDA-N; 16.9 µM (inactive) in the experiment on Malme-3M; 44.8 µM (inactive) in the experiment with NCI-H226; 35.9 µM (inactive) in the experiment with OVCAR-5. Also, the GI50 is 63.2 µM (inactive) with SF-268; 33.7 µM (inactive) in the experiment with SF-539; 19.4 µM (inactive) in the experiment on SK-MEL-28; 16.3 µM (inactive) in the experiment on SK-MEL-5; 34.2 µM (inactive) with SK-OV-3; 20.7 µM (inactive) in the experiment on T47D. In addition, the GI50 in the experiment with U-251 is 39.7 µM (inactive).
